From patent publication US20260374766A1, “METHODS FOR TREATING CANCER” (Antares Therapeutics, Inc., priority 2022, published 2026)

Assays:
[1] = biological target: T1, p53 Y220C mutant protein (amino acid residues 94-293) (Homo sapiens, UniProt P04637, Y220C); assay: Surface Plasmon Resonance (SPR) assay, Kd_kinetic; assay type: binding; conditions: SPR, kinetic KD, p53 Y220C; read-out: SPR P53 Y220C KD kinetic
T1 construct: p53 Y220C mutant protein (amino acid residues 94-293)
Outline: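 Binding measured by SPR on a Biacore 8K in running buffer of 50 mM Tris pH 7.5, 100 mM NaCl, 1 mM DTT, 0.01% Brij35, 0.05% Tween-20, 1% DMSO.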

p53 Y220C = p53 Y220C (Homo sapiens, UniProt P04637, Y220C); assay: Luciferase Reporter Assay (Luc), p53 response element, NClH1299 cells with inducible p53 Y220C; assay type: cell-based; conditions: luciferase reporter, NClH1299 inducible p53 Y220C, 6 hour; for Emax: 10 uM tool compound as positive control; for AC50: read-out: Luc P53 Y220C AC50
Outline: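 Steps: seed 5,000 cells/well; induce mutant p53 with 0.5 ug/mL doxycycline for 24 h; treat with compound 6 h; add equal volume One-Glo, shake 5 min at room temperature; measure luciferase immediately.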

NUGC3 p53 Y220C = assay: Cell Proliferation Assay (CellTiter-Glo, CTG), NUGC3 p53 Y220C; assay type: cell-based; conditions: Homo sapiens, NUGC-3, 120 h, CellTiter-Glo, NUGC3 p53 Y220C, 5 days
Outline: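 NClH1299 lines stably transduced with Tet-inducible p53 Y220C or R273H, plus NUGC3, were treated with compound for 5 days at 250-500 cells/well. IC50 derived from CellTiter-Glo luminescent signal after 10 min room-temperature incubation.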

H1299 p53 R273H = assay: Cell Proliferation Assay (CellTiter-Glo, CTG), H1299 p53 R273H (NClH1299-inducible p53 R273H); assay type: cell-based; conditions: Homo sapiens, NCI-H1299, 120 h, CellTiter-Glo, H1299 p53 R273H, 5 days
Outline: (§1)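 Cells seeded at 250-500 per well and exposed to compound for 5 days. Viability read by CellTiter-Glo luminescence after 10 min at room temperature; IC50 calculated. H1299 lines carry Tet-One inducible p53 mutant constructs introduced by lentiviral transduction.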

H1299 p53 Y220C = assay: Cell Proliferation Assay (CellTiter-Glo, CTG), H1299 p53 Y220C (NClH1299-inducible p53 Y220C); assay type: cell-based; conditions: Homo sapiens, NCI-H1299, 120 h, CellTiter-Glo, H1299 p53 Y220C, 5 days
Outline: as §1

[2] = biological target: T1, p53 Y220C mutant protein (amino acid residues 94-293); assay: Thermal Shift Assay (TSA), dTM; assay type: binding; conditions: thermal shift; for ΔTm at 100 µM: 100 uM compound, read-out: TSA P53 Y220C dTM (100 uM)
Outline: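 5 μM protein + 10 μM or 100 μM cpd, 3 h, 20 °C; 20 mM HEPES pH7.4, 100 mM NaCl, 0.01% Pluronic F-127, 1% DMSO, Sypro Orange 400-fold dil. Ramp 30→50 °C, 0.03 °C/s. TM by Boltzmann two-state fit.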

Row | Compound | Kd [1] | Emax (p53 Y220C) | AC50 (p53 Y220C) | IC50 (NUGC3 p53 Y220C) | IC50 (H1299 p53 R273H) | IC50 (H1299 p53 Y220C) | ΔTm at 100 µM [2] | ΔTm at 10 µM ([2]; 10 uM compound, read-out: TSA P53 Y220C dTM (10 uM))
1 | CNC(=O)c1ccc(NCC#Cc2nc3c(N[C@@H]4CCN(C)C[C@@H]4F)cccn3c2CC(F)(F)F)c(OCC(F)(F)F)c1 [Example 61, 4-{[3-(8-{[(3S,4R)-3-fluoro-1-methylpiperidin-4-yl]amino}-3-(2,2,2-trifluoroethyl)imidazo[1,2-a]pyridin-2-yl)prop-2-yn-1-yl]amino}-N-methyl-3-(2,2,2-trifluoroethoxy)benzamide] | 10 to 100 nM | 80 to 90% | 750 to 1500 nM | 750 to 1500 nM | ≥ 10000 nM | < 750 nM | 5 to 10 °C | –
2 | CNC(=O)c1ccc(NCC#Cc2nc3c(N[C@@H]4CCN(C)C[C@@H]4F)cccn3c2CC(F)(F)F)c(OCCOC)c1 [Example 62, 4-{[3-(8-{[(3S,4R)-3-fluoro-1-methylpiperidin-4-yl]amino}-3-(2,2,2-trifluoroethyl)imidazo[1,2-a]pyridin-2-yl)prop-2-yn-1-yl]amino}-3-(2-methoxyethoxy)-N-methylbenzamide] | < 10 nM | 70 to 80% | 750 to 1500 nM | 750 to 1500 nM | ≥ 10000 nM | 750 to 1500 nM | ≥ 10 °C | –
3 | COc1cc(S(N)(=O)=O)ccc1NCC#Cc1nc2c(N[C@@H]3CCN(C)C[C@@H]3F)cccn2c1CC(F)(F)F [Example 63, 4-{[3-(8-{[(3S,4R)-3-fluoro-1-methylpiperidin-4-yl]amino}-3-(2,2,2-trifluoroethyl)imidazo[1,2-a]pyridin-2-yl)prop-2-yn-1-yl]amino}-3-methoxybenzenesulfonamide] | 10 to 100 nM | 70 to 80% | 1500 to 3000 nM | 750 to 1500 nM | ≥ 10000 nM | 750 to 1500 nM | ≥ 10 °C | –
4 | CNS(=O)(=O)c1ccc(NCC#Cc2nc3c(N[C@@H]4CCN(C)C[C@@H]4F)cccn3c2CC(F)(F)F)c(OC)c1 [Example 64, 4-{[3-(8-{[(3S,4R)-3-fluoro-1-methylpiperidin-4-yl]amino}-3-(2,2,2-trifluoroethyl)imidazo[1,2-a]pyridin-2-yl)prop-2-yn-1-yl]amino}-3-methoxy-N-methylbenzenesulfonamide] | < 10 nM | 70 to 80% | 750 to 1500 nM | < 750 nM | 8000 to 10000 nM | < 750 nM | ≥ 10 °C | ≥ 10 °C
5 | COc1cc(S(=O)(=O)N(C)C)ccc1NCC#Cc1nc2c(N[C@@H]3CCN(C)C[C@@H]3F)cccn2c1CC(F)(F)F [Example 65, 4-{[3-(8-{[(3S,4R)-3-fluoro-1-methylpiperidin-4-yl]amino}-3-(2,2,2-trifluoroethyl)imidazo[1,2-a]pyridin-2-yl)prop-2-yn-1-yl]amino}-3-methoxy-N,N-dimethylbenzenesulfonamide] | 10 to 100 nM | 70 to 80% | < 750 nM | 750 to 1500 nM | 5000 to 8000 nM | 750 to 1500 nM | ≥ 10 °C | –
6 | CCS(=O)(=O)c1ccc(NCC#Cc2nc3c(N[C@@H]4CCN(C)C[C@@H]4F)cccn3c2CC(F)(F)F)c(OC)c1 [Example 66, (3S,4R)—N-[2-(3-{[4-(ethanesulfonyl)-2-methoxyphenyl]amino}prop-1-yn-1-yl)-3-(2,2,2-trifluoroethyl)imidazo[1,2-a]pyridin-8-yl]-3-fluoro-1-methylpiperidin-4-amine] | < 10 nM | 70 to 80% | < 750 nM | < 750 nM | 5000 to 8000 nM | < 750 nM | ≥ 10 °C | –
7 | COc1cc(S(=O)(=O)C2CC2)ccc1NCC#Cc1nc2c(N[C@@H]3CCN(C)C[C@@H]3F)cccn2c1CC(F)(F)F [Example 67, (3S,4R)—N-[2-(3-{[4-(cyclopropanesulfonyl)-2-methoxyphenyl]amino}prop-1-yn-1-yl)-3-(2,2,2-trifluoroethyl)imidazo[1,2-a]pyridin-8-yl]-3-fluoro-1-methylpiperidin-4-amine] | < 10 nM | 70 to 80% | < 750 nM | < 750 nM | 5000 to 8000 nM | < 750 nM | ≥ 10 °C | –
8 | CN1CC[C@@H](Nc2cccn3c(CC(F)(F)F)c(C#CCNc4ccc(S(C)(=O)=O)cc4F)nc23)[C@@H](F)C1 [Example 68, (3S,4R)-3-fluoro-N-(2-{3-[(2-fluoro-4-methanesulfonylphenyl)amino]prop-1-yn-1-yl}-3-(2,2,2-trifluoroethyl)imidazo [1,2-a]pyridin-8-yl)-1-methylpiperidin-4-amine] | 10 to 100 nM | 70 to 80% | 1500 to 3000 nM | 1500 to 3000 nM | ≥ 10000 nM | 1500 to 3000 nM | 5 to 10 °C | –
9 | CN1CC[C@@H](Nc2cccn3c(CC(F)(F)F)c(C#CC(C)(C)O)nc23)[C@@H](F)C1 [Example 69, 4-(8-{[(3S,4R)-3-fluoro-1-methylpiperidin-4-yl]amino}-3-(2,2,2-trifluoroethyl)imidazo[1,2-a]pyridin-2-yl)-2-methylbut-3-yn-2-ol] | 100 to 1000 nM | < 70% | > 3000 nM | > 3000 nM | ≥ 10000 nM | > 3000 nM | 5 to 10 °C | –
10 | C[C@@H](O)C#Cc1nc2c(N[C@@H]3CCN(C)C[C@@H]3F)cccn2c1CC(F)(F)F [Example 70, (2R)-4-(8-{[(3S,4R)-3-fluoro-1-methylpiperidin-4-yl]amino}-3-(2,2,2-trifluoroethyl)imidazo[1,2-a]pyridin-2-yl)but-3-yn-2-ol] | 10 to 100 nM | < 70% | > 3000 nM | > 3000 nM | ≥ 10000 nM | > 3000 nM | 5 to 10 °C | –
11 | C[C@H](O)C#Cc1nc2c(N[C@@H]3CCN(C)C[C@@H]3F)cccn2c1CC(F)(F)F [Example 71, (2S)-4-(8-{[(3S,4R)-3-fluoro-1-methylpiperidin-4-yl]amino}-3-(2,2,2-trifluoroethyl)imidazo[1,2-a]pyridin-2-yl)but-3-yn-2-ol] | 100 to 1000 nM | < 70% | > 3000 nM | > 3000 nM | ≥ 10000 nM | > 3000 nM | 5 to 10 °C | –
12 | CN1CC[C@@H](Nc2cccn3c(CC(F)(F)F)c(C#C[C@@H](O)c4ccccc4)nc23)[C@@H](F)C1 [Example 72, (1S)-3-(8-{[(3S,4R)-3-fluoro-1-methylpiperidin-4-yl]amino}-3-(2,2,2-trifluoroethyl)imidazo[1,2-a]pyridin-2-yl)-1-phenylprop-2-yn-1-ol] | > 1000 nM | < 70% | > 3000 nM | 750 to 1500 nM | < 5000 nM | 1500 to 3000 nM | 1 to 5 °C | –
13 | CN1CC[C@@H](Nc2cccn3c(CC(F)(F)F)c(C#C[C@H](O)c4ccccc4)nc23)[C@@H](F)C1 [Example 73, (1R)-3-(8-{[(3S,4R)-3-fluoro-1-methylpiperidin-4-yl]amino}-3-(2,2,2-trifluoroethyl)imidazo[1,2-a]pyridin-2-yl)-1-phenylprop-2-yn-1-ol] | 100 to 1000 nM | < 70% | > 3000 nM | 1500 to 3000 nM | < 5000 nM | 1500 to 3000 nM | 5 to 10 °C | –
14 | CN1CC[C@@H](Nc2cccn3c(CC(F)(F)F)c(C#CCCN)nc23)[C@@H](F)C1 [Example 74, (3S,4R)—N-[2-(4-aminobut-1-yn-1-yl)-3-(2,2,2-trifluoroethyl)imidazo[1,2-a]pyridin-8-yl]-3-fluoro-1-methylpiperidin-4-amine] | 100 to 1000 nM | < 70% | > 3000 nM | > 3000 nM | ≥ 10000 nM | > 3000 nM | 5 to 10 °C | –
15 | CN1CC[C@@H](Nc2cccn3c(CC(F)(F)F)c(C#CCNc4ccc(S(C)(=O)=O)cc4)nc23)[C@@H](F)C1 [Example 76, (3S,4R)-3-fluoro-N-(2-{3-[(4-methanesulfonylphenyl)amino]prop-1-yn-1-yl}-3-(2,2,2-trifluoroethyl)imidazo[1,2-a]pyridin-8-yl)-1-methylpiperidin-4-amine] | < 10 nM | 70 to 80% | 1500 to 3000 nM | 750 to 1500 nM | ≥ 10000 nM | 750 to 1500 nM | 5 to 10 °C | –
